Measurements: PubChem BioAssay AID1259340 (Broad Institute, 2017)
Calls of active or inactive are those of the source.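 How the source made its calls: active means AC50 no more than ten times the top concentration tested; inconclusive means flat fit with inhibition between 30% and 70%, or unusable fit; inactive means AC50 beyond ten times the top concentration.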

Biological target: Caspase recruitment domain-containing protein 9 (Homo sapiens) + B-cell lymphoma/leukemia 10 (Homo sapiens) (UniProt Q9H257+O95999)
Assay: disruptors of CARD9-BCL10 binding, dose response, selectivity assay for CARD9-TRIM62 disruptor project, cell lysate, HEK293FT lysates, Luminex bead ELISA (AID 1259340)
Details: not given

Caspase recruitment domain-containing protein 9 (Homo sapiens) + B-cell lymphoma/leukemia 10 (Homo sapiens), sequence (O95999 whole entry, looked up, the tested form may be a part): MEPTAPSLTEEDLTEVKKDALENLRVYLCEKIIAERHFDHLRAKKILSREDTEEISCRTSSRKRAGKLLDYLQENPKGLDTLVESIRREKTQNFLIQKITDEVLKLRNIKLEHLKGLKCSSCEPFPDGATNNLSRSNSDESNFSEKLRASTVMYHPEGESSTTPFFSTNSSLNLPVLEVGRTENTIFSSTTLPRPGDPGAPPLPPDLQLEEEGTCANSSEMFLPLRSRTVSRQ
Caspase recruitment domain-containing protein 9 (Homo sapiens) + B-cell lymphoma/leukemia 10 (Homo sapiens), sequence (Q9H257 whole entry, looked up, the tested form may be a part): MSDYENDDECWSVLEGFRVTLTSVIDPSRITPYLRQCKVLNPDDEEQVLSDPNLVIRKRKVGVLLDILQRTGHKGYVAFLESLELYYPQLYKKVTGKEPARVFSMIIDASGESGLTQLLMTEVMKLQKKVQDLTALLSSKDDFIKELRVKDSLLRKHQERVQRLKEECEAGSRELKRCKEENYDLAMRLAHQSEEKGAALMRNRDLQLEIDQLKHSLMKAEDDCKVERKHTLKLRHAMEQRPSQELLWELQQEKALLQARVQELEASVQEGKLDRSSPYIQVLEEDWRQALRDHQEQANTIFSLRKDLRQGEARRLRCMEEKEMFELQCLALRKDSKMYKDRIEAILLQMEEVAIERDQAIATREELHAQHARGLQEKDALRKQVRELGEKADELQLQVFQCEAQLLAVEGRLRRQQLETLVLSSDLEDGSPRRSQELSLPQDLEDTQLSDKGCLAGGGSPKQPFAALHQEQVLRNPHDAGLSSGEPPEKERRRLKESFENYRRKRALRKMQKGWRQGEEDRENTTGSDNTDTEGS

SMILES	AC50
CC(=O)Nc1ccc(Nc2nc(-c3nnc(-c4cccc(C)c4)o3)nc3ccccc23)cc1	72.4 µM
C=CCNc1ncnc2c1CCN(C(=O)c1ccc(CSC)o1)CC2	> 160 µM (inactive)
O=[N+]([O-])c1cccc(-c2nnc3ccc4ccccc4n23)c1	> 160 µM (inactive)
O=C(Nc1nc(-c2ccco2)c(-c2ccco2)s1)C1CCC1	> 160 µM (inactive)
COc1cccc(NC(=O)CN(C)C(=O)c2cc3c(s2)CCC3)c1	> 160 µM (inactive)
CC(=O)c1sc2nc(-c3ccco3)ccc2c1N	26.1 µM

Same assay, conditions: at 80 µM (top of the series)

SMILES	activity change, negative = inhibition
Cc1ccc(N2NC(c3ccc(Br)cc3)=CCC2=O)cc1	inactive
O=C(CN1CCOC1=O)N1CCC2(CCC(=O)N(CCCn3ccnc3)C2)CC1	inactive
NC(=O)C1(N2CCCCC2)CCN(c2ncc(NC(=O)c3cccs3)cc2C(=O)O)CC1	inactive
CCCc1cc(C(=O)N2CC[C@H]3CNC[C@H]32)n(C)n1	inactive
COc1ccc(-c2ccc(CCC(=O)O)o2)cc1	inactive
COCC(=O)N1CCCC2(CCN(CCN3CCCC3)C2=O)C1 (stereo not given)	inactive
Cc1c(C(=O)OCC2CCCO2)[nH]c2c1C(=O)CC(c1ccco1)C2 (stereo not given)	inactive
O=C(Cn1c(=O)cc(C(=O)N2CCc3ccccc3C2)c2ccccc21)NCc1ccc2c(c1)OCO2	inactive
O=S(=O)(Nc1nccs1)c1ccc(-n2cccc2)cc1	inactive
